Test system: chymotrypsin
Format: biochemical
Settings: pH 8.0

Oc1cccnc1 [3-hydroxypyridine]
kinetics of the inhibition of chymotrypsin by AEBSF: not changed

— patent US6235509A (priority 1996, dated 2001)
